Measurements taken from the NIST ThermoML archive (doi:10.1021/je050399c).
± gives the expanded uncertainty stated by the source.

Details: Fluid (supercritical or subcritical phases), Vibrating wire viscometry

N#N [nitrogen]
viscosity [mPa·s]
Details	323.15 K	348.15 K
100.1 kPa	–	0.02 ± 8.8e-05
200.1 kPa	–	0.02003 ± 9.1e-05
300.1 kPa	–	0.02004 ± 8.5e-05
400.2 kPa	–	0.02005 ± 8.4e-05
600.5 kPa	–	0.02007 ± 8.3e-05
800.6 kPa	–	0.02009 ± 8.3e-05
1000.9 kPa	–	0.02011 ± 8.5e-05
1501.9 kPa	–	0.02017 ± 8.4e-05
2001.6 kPa	–	0.02023 ± 8.5e-05
2500.9 kPa	0.01924 ± 8.3e-05	–
2502 kPa	–	0.0203 ± 8.6e-05
3000.8 kPa	0.01932 ± 8.4e-05	–
3002.6 kPa	–	0.02037 ± 8.7e-05
3502.6 kPa	0.0194 ± 8.4e-05	–
3504.2 kPa	–	0.02044 ± 8.7e-05
3999.6 kPa	–	0.02051 ± 8.7e-05
4001.8 kPa	0.01948 ± 8.5e-05	–
4500.4 kPa	0.01957 ± 8.6e-05	–
4508.2 kPa	–	0.02058 ± 8.8e-05
5002.2 kPa	0.01965 ± 8.7e-05	0.02066 ± 8.9e-05
5502.8 kPa	–	0.02074 ± 9.1e-05
5503.9 kPa	0.01976 ± 8.7e-05	–
6003.4 kPa	–	0.02084 ± 9.1e-05
6003.6 kPa	0.01983 ± 8.7e-05	–
6501.3 kPa	–	0.02092 ± 9.1e-05
6503.6 kPa	0.01994 ± 9.2e-05	–
7002.3 kPa	–	0.02101 ± 9.2e-05
7009.3 kPa	0.02005 ± 9.2e-05	–
7502.5 kPa	–	0.0211 ± 9.3e-05
7502.7 kPa	0.02015 ± 9.2e-05	–
8002.1 kPa	–	0.0212 ± 9.3e-05
8003.1 kPa	0.02027 ± 9.3e-05	–
8501.8 kPa	–	0.02129 ± 9.4e-05
8504.2 kPa	0.02038 ± 9.4e-05	–
9004 kPa	–	0.02139 ± 9.6e-05
9006.1 kPa	0.0205 ± 9.5e-05	–
9498.9 kPa	–	0.0215 ± 9.7e-05
9500.4 kPa	0.02062 ± 9.5e-05	–
10001 kPa	–	0.02161 ± 9.6e-05
10007 kPa	0.02073 ± 9.6e-05	–
11007 kPa	0.02098 ± 9.9e-05	0.02182 ± 9.7e-05
12006 kPa	0.02124 ± 0.0001	–
12007 kPa	–	0.02203 ± 9.9e-05
13005 kPa	0.02151 ± 0.0001	–
13006 kPa	–	0.02227 ± 0.0001
14001 kPa	–	0.0225 ± 0.0001
14005 kPa	0.02176 ± 0.0001	–
15005 kPa	0.02205 ± 0.00011	–
15011 kPa	–	0.02274 ± 0.0001
16001 kPa	–	0.02299 ± 0.00011
16009 kPa	0.02233 ± 0.00011	–
17002 kPa	–	0.02326 ± 0.00011
17007 kPa	0.02262 ± 0.00011	–
18000 kPa	0.02292 ± 0.00011	–
18004 kPa	–	0.02351 ± 0.00011
19007 kPa	0.02323 ± 0.00011	–
19008 kPa	–	0.02378 ± 0.00011
19999 kPa	0.02354 ± 0.00011	–
20006 kPa	–	0.02404 ± 0.00011
21004 kPa	–	0.02431 ± 0.00011
21010 kPa	0.02383 ± 0.00011	–
22011 kPa	0.02417 ± 0.00012	0.02458 ± 0.00011
23006 kPa	–	0.02486 ± 0.00012
23013 kPa	0.02451 ± 0.00012	–
24004 kPa	0.02481 ± 0.00012	0.02515 ± 0.00012
25005 kPa	0.02511 ± 0.00012	–
26011 kPa	0.02547 ± 0.00012	–
27000 kPa	0.02579 ± 0.00012	–
28012 kPa	0.02613 ± 0.00012	–
29014 kPa	0.02646 ± 0.00012	–
30014 kPa	0.02677 ± 0.00013	–
31013 kPa	0.02714 ± 0.00013	–
31997 kPa	0.02746 ± 0.00013	–
33007 kPa	0.02781 ± 0.00013	–
34009 kPa	0.02814 ± 0.00013	–
35066 kPa	0.02852 ± 0.00015	–
